Test results as given in ChEMBL document CHEMBL3046554, “Investigating the mode of action of sulfoxaflor: a fourth-generation neonicotinoid” (Pest Manag Sci, 2013).
Values after ≈ are worked out from the molar mass of the structure shown. Active and inactive are the calls of the source. The calls are words filed in the database; no cut-off is given here.

Assays:
Myzus persicae [1] = assay: whole plant or invertebrate; format: functional; settings: 4106A, in Brassica rapa, 72 h
Description: Insecticidal activity against Myzus persicae 4106A (green peach aphid) fed on compound treated chinese cabbage discs after 72 hr

Myzus persicae [2] = assay: Insecticidal activity against neonicotinoid-resistant Myzus persicae FRC-P (green peach aphid) fed on compound treated chinese cabbage discs after 72 hr; format: functional; settings: in Brassica rapa
Myzus persicae [3] = assay: Displacement of [3H]-methyl-SFX from nAChR in Myzus persicae (green peach aphid) 4106A membrane at 1 ppm after 70 min
Myzus persicae [4] = assay: Ratio of Ki for [3H]IMD displacement to [3H]-methyl-SFX displacement from nAChR in Myzus persicae 4106A (green peach aphid) membrane; settings: tested as the 3H-labelled form
Myzus persicae [5] = assay: Binding affinity to nAChR in neonicotinoid-resistant Myzus persicae FRC-P (green peach aphid) membrane at 0.05 to 16 nM after 70 min; settings: tested as the 3H-labelled form

CCN(Cc1ccc(Cl)nc1)/C(=C/[N+](=O)[O-])NC [NITENPYRAM] showed an LC50 (Myzus persicae [1]) of 1.3 µg/mL (≈ 4.8 µM) and an LC50 (Myzus persicae [2]) of 236 µg/mL (≈ 872 µM).
Compound CS(=O)(Cc1cnc(Cl)s1)=NC#N (stereo unspecified) has an LC50 (Myzus persicae [1]) of 14.4 µg/mL (≈ 61.2 µM).
In the case of C[C@@](F)(c1ccc(C(F)(F)F)nc1)S(C)(=O)=NC#N (stereo partly specified), the LC50 (Myzus persicae [1]) is reported as 4.64 µg/mL (≈ 15.7 µM).
CCN(CC)c1nc(C)cc(OP(=S)(OC)OC)n1 gave an Activity (Myzus persicae [3]) of 2%.
CC(c1ccc(C(F)(F)F)nc1)S(C)(=O)=NC(N)=O (stereo unspecified) was tested, and the LC50 (Myzus persicae [1]) was over 100 µg/mL.
CC[C@H](C)[C@H]1O[C@]2(C=C[C@@H]1C)C[C@@H]1C[C@@H](C/C=C(\C)[C@@H](O[C@H]3C[C@H](OC)[C@@H](O[C@H]4C[C@H](OC)[C@@H](O)[C@H](C)O4)[C@H](C)O3)[C@@H](C)/C=C/C=C3\CO[C@@H]4[C@H](O)C(C)=C[C@@H](C(=O)O1)[C@]34O)O2.CO[C@H]1C[C@H](O[C@H]2[C@H](C)O[C@@H](O[C@@H]3/C(C)=C/C[C@@H]4C[C@@H](C[C@]5(C=C[C@H](C)[C@@H](C(C)C)O5)O4)OC(=O)[C@@H]4C=C(C)[C@@H](O)[C@H]5OC/C(=C\C=C\[C@@H]3C)[C@]54O)C[C@@H]2OC)O[C@@H](C)[C@@H]1O was tested, and the Activity (Myzus persicae [3]) was -6%.
CCS(=O)(=NC#N)C(C)(C)c1ccc(C(F)(F)F)nc1 (stereo unspecified) was tested, and the LC50 (Myzus persicae [1]) was 20.5 µg/mL (≈ 67.1 µM).
With CC(c1ccc(C(F)(F)F)nc1)S(C)(=O)=N[N+](=O)[O-] (stereo unspecified) the LC50 (Myzus persicae [1]) was over 100 µg/mL.
For CN/C(=N\[N+](=O)[O-])NCc1cnc(Cl)s1 [CLOTHIANIDINE], the LC50 (Myzus persicae [1]) was 0.3 µg/mL (≈ 1.2 µM) and the LC50 (Myzus persicae [2]) was 904 µg/mL (≈ 3620 µM).
Work on C=CCC(F)(F)c1ccc(C(C)S(C)(=O)=NC#N)cn1 (stereo unspecified) yielded an LC50 (Myzus persicae [1]) of over 100 µg/mL.
Compound CS(=O)(Cc1ccc(C(F)(F)Cl)nc1)=NC#N (stereo unspecified) has an LC50 (Myzus persicae [1]) of 9.6 µg/mL (≈ 34.3 µM).
Compound N#C/N=C1\SCCN1Cc1ccc(Cl)nc1 [THIACLOPRID] has an LC50 (Myzus persicae [1]) of 0.4 µg/mL (≈ 1.58 µM) and an LC50 (Myzus persicae [2]) of over 1000 µg/mL.
For CCC(C)c1cc([N+](=O)[O-])cc([N+](=O)[O-])c1O (stereo unspecified), the Activity (Myzus persicae [3]) was 13%.
With CC(C)(c1ccc(C(F)(F)F)nc1)S(C)(=O)=NC#N (stereo unspecified) the LC50 (Myzus persicae [1]) was 0.45 µg/mL (≈ 1.54 µM), the Ratio Ki (Myzus persicae [4]) was 100 and the Activity (Myzus persicae [5]) was “inactive”.
With O=[N+]([O-])/N=C1\NCCN1Cc1ccc(Cl)nc1 [IMIDACLOPRID] the LC50 (Myzus persicae [1]) was 0.1 µg/mL (≈ 0.391 µM) and the LC50 (Myzus persicae [2]) was 108 µg/mL (≈ 422 µM).
In the case of CNC(=O)O/N=C/C(C)(C)SC, the Activity (Myzus persicae [3]) is reported as 0%.
For N#Cc1nn(-c2c(Cl)cc(C(F)(F)F)cc2Cl)c(N)c1[S+]([O-])C(F)(F)F (stereo unspecified), the Activity (Myzus persicae [3]) was 30%.
Compound CNC(=O)c1cc(Cl)cc(C)c1NC(=O)c1cc(Br)nn1-c1ncccc1Cl has an Activity (Myzus persicae [3]) of 8%.
CC(c1ccc(Cl)nc1)S(C)(=O)=NC#N (stereo unspecified) gave an LC50 (Myzus persicae [1]) of 1.4 µg/mL (≈ 5.74 µM).
CC1(C)[C@H](/C=C(\Cl)C(F)(F)F)[C@@H]1C(=O)O[C@@H](C#N)c1cccc(Oc2ccccc2)c1 (relative stereo) showed an Activity (Myzus persicae [3]) of 3%.
CON=CCCC(F)(F)c1ccc(C(C)S(C)(=O)=NC#N)cn1 (stereo unspecified) was tested, and the LC50 (Myzus persicae [1]) was over 100 µg/mL.
Cc1nc(C(F)(F)F)ccc1CS(C)(=O)=NC#N (stereo unspecified) gave an LC50 (Myzus persicae [1]) of over 100 µg/mL.
CC(c1ccc(C(F)(F)F)nc1)S(C)(=O)=NC#N (stereo unspecified) [SULFOXAFLOR] showed an LC50 (Myzus persicae [1]) of 0.08 µg/mL (≈ 0.289 µM) and an LC50 (Myzus persicae [2]) of 4.3 µg/mL (≈ 15.5 µM).
With CN/C(=N/CC1CCOC1)N[N+](=O)[O-] (stereo unspecified) [DINOTEFURAN] the LC50 (Myzus persicae [1]) was 10 µg/mL (≈ 49.5 µM) and the LC50 (Myzus persicae [2]) was 538 µg/mL (≈ 2660 µM).
Compound C/C(=N\C#N)N(C)Cc1ccc(Cl)nc1 [ACETAMIPRID] has an LC50 (Myzus persicae [1]) of 0.6 µg/mL (≈ 2.69 µM) and an LC50 (Myzus persicae [2]) of 49.3 µg/mL (≈ 221 µM).
CN1COCN(Cc2cnc(Cl)s2)/C1=N\[N+](=O)[O-] [THIAMETHOXAM] was tested, and the LC50 (Myzus persicae [1]) was 0.5 µg/mL (≈ 1.71 µM) and the LC50 (Myzus persicae [2]) was 108 µg/mL (≈ 370 µM).
